The source of these data is US5958945A, “Naphthamide derivatives of 3-beta-amino azabicyclo octane or nonane as neuroleptic agents” (Pierre Fabre Medicament, priority 1995, dated 1999).

pKi: −log10 of the molar value. Structures can show the parent of a compound that is named as a salt.

The target in one experiment is D2 receptor. Kind of experiment: Binding: displacement of [^3 H] YM-09151-2 (D2 site). To be noted: Ligand [^3 H] YM09151-2. From the text:
(§1) This process for studying specific binding is described Naunyn-Schmiedeberg's Arch. Pharmacol. 329, 333-338, 1985 and Mol. Pharmacol. 21, 301-314, 1982.

Another experiment addresses 5-HT2 receptor (Rattus norvegicus, UniProt P14842). Kind of experiment: Binding: displacement of [^3 H] Ketanserine (5-HT2 site). To be noted: compared with the reference substances.
Description: as §1

Sequence of 5-HT2 receptor (P14842 whole entry): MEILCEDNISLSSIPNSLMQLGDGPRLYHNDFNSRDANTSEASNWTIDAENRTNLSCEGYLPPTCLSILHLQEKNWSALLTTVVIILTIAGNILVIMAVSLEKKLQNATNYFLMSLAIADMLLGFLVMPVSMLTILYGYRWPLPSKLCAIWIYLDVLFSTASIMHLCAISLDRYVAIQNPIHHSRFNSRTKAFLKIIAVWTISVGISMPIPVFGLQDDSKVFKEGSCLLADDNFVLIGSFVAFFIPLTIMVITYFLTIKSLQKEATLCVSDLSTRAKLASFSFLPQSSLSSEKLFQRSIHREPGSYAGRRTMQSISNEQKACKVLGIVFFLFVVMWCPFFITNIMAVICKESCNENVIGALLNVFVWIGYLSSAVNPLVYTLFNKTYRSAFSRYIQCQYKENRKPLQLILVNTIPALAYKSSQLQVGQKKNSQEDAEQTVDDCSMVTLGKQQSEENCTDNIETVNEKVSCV

For `CCOc1c(C(=O)N[C@@H]2C[C@H]3CC[C@@H](C2)N3Cc2ccccc2)cc(Br)c2ccccc12` [Example 13, 4-Bromo-1-ethoxy-N-[8-(phenylmethyl)-8-azabicyclo[3.2.1]oct-3-β-yl]-2-naphthalenecarboxamide hydrochloride], the pKi (usually the negative decadic logarithm of the Ki, by convention in mol/L) on D2 receptor was 9.03.
Same read-out and setting: the result for `COc1c(C(=O)N[C@@H]2C[C@H]3CC[C@@H](C2)N3Cc2ccccc2)ccc2ccccc12` [Example 3, 1-Methoxy-N-[8-(phenylmethyl)-8-azabicyclo[3.2.1]oct-3-β-yl]-2-naphthalenecarboxamide] reads 9.84; that for `COc1c(C(=O)N[C@@H]2C[C@H]3CC[C@@H](C2)N3Cc2ccccc2)cc(Br)c2ccccc12` [Example 4, 4-Bromo-1-methoxy-N-[8-(phenylmethyl)-8-azabicyclo[3.2.1]oct-3-β-yl]-2-naphthalenecarboxamide oxalate], 9.11.
In turn, `COc1c(C(=O)NC2CCN(Cc3ccccc3)CC2)ccc2ccccc12` [Patent EP 539,281 compound] showed a pKi on D2 receptor of 8.48. In addition, the “affinity for the 5-HT2 receptor (in words)” value at 5-HT2 receptor was “little or no 5-HT2 affinity”.
Take `COc1c(C(=O)N[C@@H]2C[C@H]3CC[C@@H](C2)N3Cc2ccccc2)cc(Cl)c2ccccc12` [Example 5, 4-Chloro-1-methoxy-N-[8-(phenylmethyl)-8-azabicyclo[3.2.1]oct-3-β-yl)-2-naphthalenecarboxamide hydrochloride]: the pKi at D2 receptor was 9.39.
On the same count and under the same terms, the result for `CCN1CCCC1CNC(=O)c1cc(S(N)(=O)=O)ccc1OC` (stereo not drawn) [Sulpiride] reads 8.33.
For the molecule `COc1cccc(C(=O)N[C@@H]2C[C@H]3CC[C@@H](C2)N3Cc2ccccc2)c1OC` [Tropapride], the pKi at D2 receptor is 9.97. Also, on 5-HT2 receptor, the “affinity for the 5-HT2 receptor (in words)” value is reported as “little or no 5-HT2 affinity”.
